Experimental data: patent US6426093B1, “Synergistic biocidal activity if ternary complexes of negatively-charged biocides (component A), transition metal ions (component B), and neutral chelators (component C)” (Yissum Research Development Company of the Hebrew …, priority 1998, dated 2002)

What was measured:
E. coli = E. coli inactivation, survival by colony-forming ability; type: cell-based
Description: A sample of bacteria from the stock solution was diluted 100-fold in “reaction buffer” to a final concentration of 0.6 OD600 (4.8×10^6 cells/ml). Various agents were added to the bacteria following 15 minutes of preincubation at 37° C. Aliquots were removed at indicated time points into “termination buffer” to stop the reaction, and diluted by a factor of 50 to 10^6. Samples from each dilution were then plated on LB agar and grown overnight at 37° C. Each sample was plated at least five times. The colonies formed were then counted. Survival curves were evaluated from colony counts. Each experiment was repeated at least three times, and the mean values and standard error of triplicates were calculated.
In the experiments shown in FIG. 3, all the incubation mixtures contained glucose (0.5% w/v) and MgSO4 (1 mM) in HEPES buffer (10 mM, pH=7.4), and bacteria (4.8×10^6 cells/ml). The cells were exposed to the combination of PCP (0.5 mM) and Fe(OP)3 (5 μM)—designated open triangles; or with the addition of DMSO (5%)—designated closed triangles; or with SOD (50 U/ml)—designated open circles. The results presented in Table 1, which were obtained using the experimental conditions and methods described above in this example, show the effect of different concentrations of PCP and copper complex and their combinations on the inactivation of E. coli.

[1] = tested on: Bone marrow-derived mast cells (MC-9 line); experiment: Killing of mast cells, survival by trypan blue method; type: cell-based, mice; conditions: 30 minutes
Description: Bone marrow-derived mast cells (MC-9 line) were obtained from the femora of mice (line C57BL/6). The cells were cultured at 37° C. in humidified atmosphere containing 5% of CO2 in RPMI-1640, supplemented with 10% fetal calf serum, 2 mM L-glutamine, 100 U/ml penicillin, 100 μg/ml streptomycin, and 50 μM β-2-mercaptoethanol. Mast cells were grown (14 days), washed and resuspended in reaction medium (only RPMI-1640) and treated for 30 minutes as indicated above. The survival was determined by the trypan blue method.

## [Cu+2].c1cnc2c(c1)ccc1cccnc12.c1cnc2c(c1)ccc1cccnc12 [Cu^II (OP)2]
E. coli; Cu^II (OP)2 1 μM
  Survival (%): 99.5%

## [Fe+2].c1cnc2c(c1)ccc1cccnc12.c1cnc2c(c1)ccc1cccnc12.c1cnc2c(c1)ccc1cccnc12 [Fe^II (OP)3]
[1]; Fe^II (OP)3 100 (unit not given)
  Survival (%): 95.4%

## Oc1c(Cl)c(Cl)c(Cl)c(Cl)c1Cl [PCP, Pentachlorophenol]
E. coli; PCP 0.4 mM
  Survival (%): 95.6%
[1]; PCP 0.5 mM
  Survival (%): 90.5%

## [Cu+2].c1cnc2c(c1)ccc1cccnc12.c1cnc2c(c1)ccc1cccnc12.c1cnc2c(c1)ccc1cccnc12 [[Cu^II (OP)3]^2+complex, 1,10-phenanthroline-copper [Cu^II (OP)3]^2+complex]
E. coli; in combination with PCP, bacterial inactivation
  activity relative to the analogous iron complex: 100 times
